The subject of this assay is human peripheral blood mononuclear cells. Put plainly: TNFα release from LPS-stimulated human peripheral blood mononuclear cells (TNFα screen). To be noted: PBMC, 18 hours incubation, TNFα in supernatant by ELISA. The format is cell-based. As to the method:
Venous blood is collected from healthy volunteers and the mononuclear cells purified by centrifugation through Histopaque (Ficoll) cushions. TNFα production from these cells is stimulated by addition of lipopolysaccharide. After 18 hours incubation in the presence of LPS, the cell supernatant is removed and the concentration of TNFα in the supernatant determined by ELISA. Addition of PDE4 inhibitors reduces the amount of TNFα produced. An IC50 is determined which is equal to the concentration of compound that gives 50% inhibition of TNFα production as compared to the LPS stimulated control wells.

Structures are written as SMILES.

As usually defined, the IC50 is the concentration at which inhibition is half-maximal. A higher IC50 goes with weaker potency. Turning to `O=C(N[C@H]1CC[C@@H](NC(=O)c2cccn3ccnc23)CC1)c1cc(F)cnc1Oc1ccc2c(c1)SCC2` [Example 1, Syn-imidazo[1,2-a]pyridine-8-carboxylic acid (4-{[2-(2,3-dihydro-benzo[b]thiophen-6-yloxy)-5-fluoro-pyridine-3-carbonyl]-amino}-cyclohexyl)-amide], the half-maximal inhibitory concentration (IC50) was 0.6 nM. This counts as sub-nanomolar.

In the case of `Cc1ccc(C(=O)N[C@H]2CC[C@@H](NC(=O)c3cc(F)cnc3Oc3ccc4c(c3)SCC4)CC2)c(O)c1` [Example 3, Syn-2-(2,3-dihydro-benzo[b]thiophen-6-yloxy)-5-fluoro-N-[4-(2-hydroxy-4-methyl-benzoylamino)-cyclohexyl]-nicotinamide], the IC50 is 0.8 nM. This IC50 and that of the molecule before are within 1.5-fold of each other.

Source of the values: US7132435B2, “Compounds” (Pfizer Inc., priority 2003, dated 2006).
